Structures can show the parent of a compound that is named as a salt.
Experiments:
MDA-MB-231 [1] = experiment: Anticancer activity against human MDA-MB-231 cells assessed as cell viability measured after 24 hrs by MTT assay; type: functional, cell-based; conditions: MDA-MB-231, 24 h
MCF7 [2] = experiment: Anticancer activity against human MCF7 cells assessed as inhibition of cell growth; type: functional, cell-based
HepG2 [3] = experiment: Anticancer activity against human HepG2 cells assessed as inhibition of cell growth; type: functional, cell-based
BT-474 = experiment: Anticancer activity against human BT-474 cells assessed as cell growth inhibition incubated for 48 hrs by MTT assay; type: functional, cell-based; conditions: BT-474, 48 h
HCT-116 [4] = experiment: cells; conditions: Homo sapiens
Description: Anticancer activity against human HCT-116 cells assessed as inhibition of cell growth by MTT assay

HepG2 [5] = experiment: cells; conditions: Homo sapiens
Description: Anticancer activity against human HepG2 cells assessed as inhibition of cell growth by MTT assay

HeLa = experiment: Antiproliferative activity against human HeLa cells assessed as cell viability measured after 24 hrs by MTT assay; type: functional, cell-based
HCT-116 [6] = experiment: Antiproliferative activity against human HCT-116 cells assessed as cell viability measured after 24 hrs by MTT assay; type: functional, cell-based; conditions: HCT-116, 24 h
P388 [7] = experiment: Anticancer activity against mouse P388 cells assessed as reduction in cell growth; type: functional, cell-based
MCF7 [8] = experiment: Anticancer activity against human MCF7 cells assessed as inhibition of cell growth incubated for 72 hrs by MTT assay; type: functional, cell-based; conditions: MCF7, 72 h
MDA-MB-231 [9] = experiment: Anticancer activity against human MDA-MB-231 cells assessed as inhibition of cell growth incubated for 72 hrs by MTT assay; type: functional, cell-based; conditions: MDA-MB-231, 72 h
[10] = Inhibition of actin (unknown origin) polymerization at 100 nM incubated for 20 mins in presence of ATP by ELISA analysis relative to control; conditions: Homo sapiens
Homo sapiens = organism: Homo sapiens; experiment: Inhibition of actin (unknown origin) polymerization at 1 uM incubated for 20 mins in presence of ATP by ELISA analysis relative to control
[11] = Inhibition of actin (unknown origin) polymerization incubated for 20 mins in presence of ATP by ELISA analysis; set-up: species or system Homo sapiens
P388 [12] = experiment: Anticancer activity against mouse P388 cells assessed as inhibition of cell growth by dilution assay; type: functional, cell-based
A549 [13] = experiment: Anticancer activity against human A549 cells assessed as inhibition of cell growth by dilution assay; type: functional, cell-based
HT-29 [14] = experiment: Anticancer activity against human HT-29 cells assessed as inhibition of cell growth by dilution assay; type: functional, cell-based
MCF7 [15] = experiment: Anticancer activity against human MCF7 cells assessed as inhibition of cell growth by MTT assay; type: functional, cell-based
P388 [16] = experiment: Anticancer activity against mouse P388 cells assessed as cell growth inhibition; type: functional, cell-based
P388 [17] = experiment: Anticancer activity against mouse P388 cells assessed as inhibition of cell growth; type: functional, cell-based
A549 [18] = experiment: Anticancer activity against human A549 cells assessed as cell growth inhibition; type: functional, cell-based
HT-29 [19] = experiment: Anticancer activity against human HT-29 cells assessed as cell growth inhibition; type: functional, cell-based

COC1=C(Br)[C@H]2OC(=O)C[C@]2(O)C=C1Br
IC50 (MDA-MB-231 [1]): 18000 nM

CCCCCCCCCCCCCCCCCCCCC[C@@H](O)[C@@H](O)[C@H](CO)NC(=O)[C@H](O)CCCCCCCCCCCCCCCC
IC50 (MCF7 [2]): 26800 nM | IC50 (HepG2 [3]): 24700 nM

[O-][N+]12CCC[C@]3(O)CCCCCC[C@@H]4CCN5CCC[C@](O)(CCCCCC[C@H](CC1)O[C@@H]32)[C@@H]5O4 (stereo partly drawn)
IC50 (BT-474): 35600 nM

CC(=O)O[C@H]1C[C@H]2[C@@](C)(CC[C@H]3C(C)(C)CCC[C@]23C)[C@@H]2CC=C(C(C)=O)C[C@]21C
IC50 (HCT-116 [4]): 1.8 nM | IC50 (HepG2 [5]): 4.4 nM

O[C@]12CCCCCC[C@@H]3CCN4CCC[C@@H](CCCCCC[C@@H]5CCN(CCC1)[C@H]2O5)[C@@H]4O3
IC50 (BT-474): 9300 nM

COC1=C(Br)C[C@@]2(OC=C1Br)ON=C(C(=O)NCCCOc1c(Br)cc(CCNC(N)=O)cc1Br)[C@H]2O
IC50 (MDA-MB-231 [1]): 19400 nM | IC50 (HeLa): 22200 nM | IC50 (HCT-116 [6]): 8200 nM

CC1=CCC[C@H]2[C@](C)(CC3=CC(=O)C=C(O)C3=O)[C@@H](C)CC[C@]12C
IC50 (P388 [7]): 1.8 nM

CO[C@]1([C@@H]2CSC(=O)N2C2CCCC2)C[C@H]2C[C@@H](CC[C@H](C)/C=C\C=C\CC/C(C)=C\C(=O)O2)O1
IC50 (MCF7 [8]): 5300 nM | IC50 (MDA-MB-231 [9]): 5070 nM | inhibition [10]: 20% | inhibition (Homo sapiens): 49% | IC50 [11]: 1050 nM

CC(=O)OC[C@]1(C)CCC[C@]2(C)[C@H]3C[C@@H](O)[C@]4(C)C5=C(CC[C@H]4[C@]3(C)CC[C@@H]12)COC5=O
IC50 (P388 [12]): 2.2 nM | IC50 (A549 [13]): 2.2 nM | IC50 (HT-29 [14]): > 2.2 nM

CC(=O)OC1=C(C[C@]2(C)[C@@H](C)CC[C@]3(C)C(C)=CCC[C@@H]23)C(=O)C=CC1=O
IC50 (P388 [7]): 30 nM

C/C1=C/C(=O)O[C@@H]2C[C@@H](CC[C@H](C)/C=C\C=C\CC1)O[C@@](O)([C@@H]1CSC(=O)N1Cc1ccccc1)C2
IC50 (MCF7 [8]): 630 nM | IC50 (MDA-MB-231 [9]): 2720 nM | inhibition [10]: 24% | inhibition (Homo sapiens): 64% | IC50 [11]: 445 nM

C/C1=C/C(=O)O[C@@H]2C[C@@H](CC[C@H](C)/C=C\CC1)O[C@@](O)([C@@H]1CSC(=O)N1)C2 [LATRUNCULIN B]
IC50 (HepG2 [3]): 19300 nM

COC1=C(Br)C[C@]2(OC=C1Br)ON=C(C(=O)NCCCOc1c(Br)cc(CCN)cc1Br)[C@@H]2O [PSAMMAPLYSIN A]
IC50 (MDA-MB-231 [1]): 3900 nM | IC50 (HeLa): 8500 nM | IC50 (HCT-116 [6]): 8500 nM

COC1=CC(=O)C(C[C@]2(C)[C@@H](C)CC[C@]3(C)C(C)=CCC[C@@H]23)=C(O)C1=O
IC50 (P388 [7]): > 54 nM

CC(=O)O[C@H]1C[C@@H]2[C@@]3(C)CCCC(C)(C)[C@@H]3CC[C@@]2(C)[C@@H]2CC=C(C(C)=O)[C@@H]3[C@H](O)C[C@@]132
IC50 (MCF7 [15]): 2.4 nM | IC50 (HCT-116 [4]): 0.6 nM | IC50 (HepG2 [5]): 4.7 nM

CCSc1ccc(/C=C2\NC(=O)NC2=O)cc1
IC50 (MDA-MB-231 [1]): 43400 nM

CO[C@]1([C@@H]2CSC(=O)N2C(=O)c2ccccc2)C[C@H]2C[C@@H](CC[C@H](C)/C=C\C=C\CC/C(C)=C\C(=O)O2)O1
IC50 (MCF7 [8]): 550 nM | IC50 (MDA-MB-231 [9]): 4480 nM | inhibition [10]: 17% | inhibition (Homo sapiens): 53% | IC50 [11]: 834 nM

CC(=O)Oc1c(O)ccc(O)c1C[C@]1(C)[C@@H](C)CC[C@]2(C)C(C)=CCC[C@@H]12
IC50 (P388 [7]): < 1.6 nM

COc1cccc2c1C(=O)c1c(O)c3c(c(O)c1C2=O)C[C@@](O)(C(=O)CO)C[C@@H]3O[C@H]1C[C@H](N)[C@H](O)[C@H](C)O1 [DOXORUBICIN HYDROCHLORIDE]
IC50 (P388 [16]): 0.0114 nM | IC50 (HCT-116 [4]): 1.2 nM | IC50 (HepG2 [5]): 1 nM

CC[C@@]1(C)CCC[C@]2(C)[C@H]3C[C@H](OC(C)=O)[C@]4(C)C=C(C(C)=O)[C@H](OC(C)=O)C[C@H]4[C@]3(C)CC[C@@H]12
IC50 (MCF7 [15]): 4.8 nM | IC50 (HCT-116 [4]): 1.3 nM | IC50 (HepG2 [5]): 2.9 nM

C#C/C=C\CCCCC#CC#CCCCCCC#CCO
IC50 (MCF7 [2]): 11700 nM

CC(=O)O[C@H]1C[C@@H]2[C@@]3(C)CCCC(C)(C)[C@@H]3CC[C@@]2(C)[C@@H]2CC=C(C(C)=O)[C@@H]3[C@@H](O)C[C@@]132
IC50 (MCF7 [15]): 1.3 nM | IC50 (HCT-116 [4]): 1.7 nM | IC50 (HepG2 [5]): 4.7 nM

C/C1=C/C(=O)O[C@@H]2C[C@@H](CC[C@H](C)/C=C\C=C\CC1)O[C@@](OC(=O)c1ccccc1)([C@@H]1CSC(=O)N1)C2
IC50 (MCF7 [8]): 520 nM | IC50 (MDA-MB-231 [9]): 5050 nM | inhibition [10]: 23% | inhibition (Homo sapiens): 67% | IC50 [11]: 466 nM

CC[C@@]1(C)CCC[C@]2(C)[C@H]3C[C@H](OC(C)=O)[C@]4(C)[C@H]5CO[C@](C)(O)C5CC[C@H]4[C@]3(C)CC[C@@H]12 (stereo partly drawn)
IC50 (MCF7 [15]): 4 nM | IC50 (HCT-116 [4]): 1.7 nM | IC50 (HepG2 [5]): 3.3 nM

CC(=O)O[C@H]1C[C@H]2[C@@](C)(CCC3C(C)(C)CCC[C@@]32C)[C@@H]2C[C@@H](OC(C)=O)C(C(C)=O)=C[C@@]12C (stereo partly drawn)
IC50 (MCF7 [15]): 4.6 nM | IC50 (HCT-116 [4]): 2.7 nM | IC50 (HepG2 [5]): 2.6 nM

CO[C@@]1(C)CCC(C(C)C)=C[C@@H]2[C@H]1CC[C@]2(C)O
IC50 (P388 [17]): > 4 nM

C[C@@H]1CN2CCC[C@H]3CCCCCC[C@H]4CCN5CCC[C@@](O)(CCCCCC[C@@H]1O[C@H]32)[C@H]5O4 [XESTOSPONGIN B]
IC50 (BT-474): 52500 nM

COC(=O)[C@@H](C)[C@@H]1CC[C@](C)(CCC(=O)C(C)(C)CCCC(C)=O)OO1 [DIACARPEROXIDE B]
IC50 (P388 [16]): ≥ 1 µg/mL | IC50 (A549 [18]): ≥ 1 µg/mL | IC50 (HT-29 [19]): ≥ 1 µg/mL

COC1=C(Br)C[C@@]2(OC=C1Br)ON=C(C(=O)NCCCOc1c(Br)cc(C(O)CNC(N)=O)cc1Br)[C@H]2O (stereo partly drawn)
IC50 (MDA-MB-231 [1]): 13200 nM | IC50 (HeLa): 17600 nM | IC50 (HCT-116 [6]): 7000 nM

C/C1=C/C(=O)O[C@@H]2C[C@@H](CC[C@H](C)/C=C\CC1)O[C@@](O)([C@@H]1CS(=O)(=O)C(=O)N1O)C2
IC50 (HepG2 [3]): 16300 nM

C=C1CCCC(C)(C)C1(O)CCC[C@@]1(C)CC[C@@H]([C@H](C)C(=O)OC)OO1 (stereo partly drawn)
IC50 (P388 [16]): ≥ 1 µg/mL | IC50 (A549 [18]): ≥ 1 µg/mL | IC50 (HT-29 [19]): ≥ 1 µg/mL

[O-][N+]12CCC[C@]3(O)CCCCCC[C@@H]4CCN5CCC[C@@H](CCCCCC[C@H](CC1)O[C@@H]32)[C@@H]5O4 (stereo partly drawn)
IC50 (BT-474): 29500 nM

CO[C@]1([C@@H]2CSC(=O)N2Cc2ccccc2)C[C@H]2C[C@@H](CC[C@H](C)/C=C\C=C\CC/C(C)=C\C(=O)O2)O1
IC50 (MCF7 [8]): 780 nM | IC50 (MDA-MB-231 [9]): 6820 nM | inhibition [10]: 33% | inhibition (Homo sapiens): 67% | IC50 [11]: 333 nM

C=C(CCCC(C)(C)O)C(=O)CC[C@@]1(C)CC[C@@H]([C@H](C)C(=O)OC)OO1 [AIKUPIKOXIDE D]
IC50 (P388 [16]): ≥ 1 µg/mL | IC50 (A549 [18]): ≥ 1 µg/mL | IC50 (HT-29 [19]): ≥ 1 µg/mL

CC1=CCC[C@H]2[C@](C)(CC3=C(O)C(=O)C=C(O)C3=O)[C@@H](C)CC[C@]12C
IC50 (P388 [7]): 3.6 nM

CCCCCCCCCCCCC(=O)N[C@@H](CO)[C@H](O)[C@H](O)CCCCCCCCCC
IC50 (MCF7 [2]): > 200000 nM | IC50 (HepG2 [3]): 107000 nM

CC(=O)CCCC(C)(C)C(=O)CC/C(C)=C/CC[C@@]1(C)CC[C@H]([C@H](C)C(=O)O)OO1 [AIKUPIKOXIDE A]
IC50 (P388 [16]): ≥ 1 µg/mL | IC50 (A549 [18]): ≥ 1 µg/mL | IC50 (HT-29 [19]): ≥ 1 µg/mL

CC[C@@]1(C)CCC[C@]2(C)[C@H]3C[C@H](OC(C)=O)[C@]45C[C@@H](O)[C@H]4C(C(C)=O)=CC[C@H]5[C@]3(C)CC[C@@H]12
IC50 (MCF7 [15]): 2.9 nM | IC50 (HCT-116 [4]): 2.9 nM | IC50 (HepG2 [5]): 3.8 nM

C/C1=C/C(=O)O[C@@H]2C[C@@H](CC[C@H](C)/C=C\C=C\CC1)O[C@@](O)([C@@H]1CSC(=O)N1)C2 [LATRUNCULIN A]
IC50 (MCF7 [8]): 480 nM | IC50 (MDA-MB-231 [9]): 4190 nM | inhibition [10]: 30% | inhibition (Homo sapiens): 70% | IC50 [11]: 284 nM

CCCCCCCC/C=C\CCCCCCC[C@@H](O)C(=O)N[C@@H](CO)[C@H](O)[C@H](O)CCCCCCCCCCCCCCCCCCC
IC50 (MCF7 [2]): 29800 nM | IC50 (HepG2 [3]): 21300 nM

Source: ChEMBL document CHEMBL5149985, “Discovery of cytotoxic natural products from Red Sea sponges: Structure and synthesis” (Eur J Med Chem, 2021)
